Measured values reported in patent US8058475B2, “Substituted cyclohexylmethyl compounds” (Gruenenthal GmbH, priority 2005, dated 2011).
pKi: −log10 of the molar value. Counter-ions that a name gives are not always drawn.

Assays:
[1] = molecular target: T1, Noradrenaline (NA) reuptake (Rattus norvegicus, UniProt Q63380); test: Noradrenaline (NA) reuptake inhibition in rat brain synaptosomes (hypothalamus, P2 fraction); assay type: biochemical; details: read-out: NA reuptake, % inhibition [10 μM]
T1 construct: synaptosomes are freshly isolated from areas of rat brain; from tissue; host or cells: rat hypothalamus synaptosomes (P2 fraction)
T1 sequence (Q63380 1-617): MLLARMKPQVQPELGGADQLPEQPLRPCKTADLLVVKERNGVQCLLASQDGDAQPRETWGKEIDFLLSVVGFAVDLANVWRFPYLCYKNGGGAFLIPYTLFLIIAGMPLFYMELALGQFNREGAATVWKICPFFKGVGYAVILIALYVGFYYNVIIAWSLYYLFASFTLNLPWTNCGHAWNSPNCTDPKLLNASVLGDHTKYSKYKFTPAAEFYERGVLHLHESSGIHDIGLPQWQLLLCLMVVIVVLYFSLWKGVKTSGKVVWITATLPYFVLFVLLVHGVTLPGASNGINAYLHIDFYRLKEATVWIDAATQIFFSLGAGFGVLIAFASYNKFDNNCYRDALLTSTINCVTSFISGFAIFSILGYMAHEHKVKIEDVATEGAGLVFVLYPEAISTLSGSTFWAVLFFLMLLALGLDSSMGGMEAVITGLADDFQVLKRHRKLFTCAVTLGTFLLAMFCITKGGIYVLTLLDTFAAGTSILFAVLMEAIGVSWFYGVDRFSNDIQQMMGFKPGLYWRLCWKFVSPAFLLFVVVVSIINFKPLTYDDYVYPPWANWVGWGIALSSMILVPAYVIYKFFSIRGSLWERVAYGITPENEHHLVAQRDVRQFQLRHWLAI
Source text: Noradrenaline (NA) and Serotonin (5HT) Reuptake Inhibition
In order to be able to carry out these studies in vitro, synaptosomes are freshly isolated from areas of rat brain. A so-called “P2” fraction prepared by the method of Gray and Whittaker (E. G. Gray and V. P. Whittaker (1962) J. Anat. 76, 79-88) is used in each case. For the NA uptake, these vesicular particles are isolated from the hypothalamus of male rat brains.
A detailed description of the method will be found in the literature (M. Ch. Frink, H. H. Hennies, W. Englberger, M. Haurand and B. Wilffert (1996) Arzneim.-Forsch./Drug Res. 46 (III), 11, 1029-1036).

human μ-opiate receptor = human μ-opiate receptor (Homo sapiens, UniProt P35372); test: Affinity for the human μ-opiate receptor ([3H]-naloxone displacement, SPA, CHO-K1 membrane preparation); assay type: binding; details: for inhibition at 1 µM: read-out: μ-Opioid receptor, % inhibition [1 μM]; for pKi: read-out: μ-Opioid receptor, Ki
human μ-opiate receptor, sequence (P35372 whole entry): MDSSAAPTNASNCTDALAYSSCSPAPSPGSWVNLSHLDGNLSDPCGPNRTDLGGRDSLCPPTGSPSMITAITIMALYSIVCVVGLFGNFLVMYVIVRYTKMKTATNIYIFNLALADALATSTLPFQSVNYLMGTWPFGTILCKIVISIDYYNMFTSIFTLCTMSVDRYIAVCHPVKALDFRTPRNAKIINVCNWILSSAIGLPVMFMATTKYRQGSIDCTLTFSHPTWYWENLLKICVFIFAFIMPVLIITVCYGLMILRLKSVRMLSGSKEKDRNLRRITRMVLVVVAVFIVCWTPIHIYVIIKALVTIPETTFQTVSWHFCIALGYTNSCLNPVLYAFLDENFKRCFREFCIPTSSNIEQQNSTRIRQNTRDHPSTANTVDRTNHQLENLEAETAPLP

Compound | inhibition at 10 µM [1] [%] | inhibition at 1 µM (human μ-opiate receptor) [%] | pKi (human μ-opiate receptor)
CN(C)C(c1ccccc1)C1CCC(O)(Cc2ccccc2)CC1 (stereo not drawn) [compound 147, 1-benzyl-4-((dimethylamino)(phenyl)methyl)cyclohexanol hydrochloride] | 12 | – | –
CN(C)C(c1ccccc1)C1CCC(CCNC(=O)Cc2ccccc2)CC1 (stereo not drawn) [compound 451, N-{2-[4-(dimethylamino-phenyl-methyl)-cyclohexyl]-ethyl}-2-phenyl-acetamide] | – | 92 | 7.62
CN(C)C(c1ccccc1)C1CCC(CCNC(=O)c2cccs2)CC1 (stereo not drawn) [compound 452, thiophene-2-carboxylic acid {2-[4-(dimethylamino-phenyl-methyl)-cyclohexyl]-ethyl}-amide] | – | 99 | 7.92
COc1cccc(CC(=O)NCCC2CCC(C(c3cccc(F)c3)N(C)C)CC2)c1 (stereo not drawn) [compound 453, N-(2-{4-[dimethylamino-(3-fluoro-phenyl)-methyl]-cyclohexyl}-ethyl)-2-(3-methoxy-phenyl)-acetamide] | – | 83 | 7.37
COc1cccc(CC(=O)NCCC2CCC(C(c3cccs3)N(C)C)CC2)c1 (stereo not drawn) [compound 454, N-{2-[4-(dimethylamino-thiophen-2-yl-methyl)-cyclohexyl]-ethyl}-2-(3-methoxy-phenyl)-acetamide] | – | 87 | 7.29
CCC(C(=O)NCCC1CCC(C(c2ccc(Cl)cc2)N(C)C)CC1)c1ccccc1 (stereo not drawn) [compound 455, N-(2-{4-[(4-chloro-phenyl)-dimethylamino-methyl]-cyclohexyl}-ethyl)-2-phenyl-butyramide] | – | 81 | 7.16
CCC(C(=O)NCCC1CCC(C(c2cccs2)N(C)C)CC1)c1ccccc1 (stereo not drawn) [compound 456, N-{2-[4-(dimethylamino-thiophen-2-yl-methyl)-cyclohexyl]-ethyl}-2-phenyl-butyramide] | – | 96 | 7.64
CN(C)C(c1ccccc1)C1CCC(CCNC(=O)c2cc3ccccc3s2)CC1 (stereo not drawn) [compound 457, benzo[b]thiophene-2-carboxylic acid {2-[4-(dimethylamino-phenyl-methyl)-cyclohexyl]-ethyl}-amide] | – | 91 | 7.40
CN(C)C(c1ccccc1)C1CCC(CCNC(=O)c2ccc([N+](=O)[O-])cc2)CC1 (stereo not drawn) [compound 458, N-{2-[4-(dimethylamino-phenyl-methyl)-cyclohexyl]-ethyl}-4-nitro-benzamide] | – | 93 | 7.31
CN(C)C(c1ccc(F)cc1)C1CCC(CCNC(=O)c2cccc(Br)c2)CC1 (stereo not drawn) [compound 459, 3-bromo-N-(2-{4-[dimethylamino-(4-fluoro-phenyl)-methyl]-cyclohexyl}-ethyl)-benzamide] | – | 90 | 7.51
CN(C)C(c1ccccc1)C1CCC(CCNC(=O)c2c(F)c(F)c(F)c(F)c2F)CC1 (stereo not drawn) [compound 460, N-{2-[4-(dimethylamino-phenyl-methyl)-cyclohexyl]-ethyl}-2,3,4,5,6-pentafluoro-benzamide] | – | 97 | 8.02
CN(C)C(c1ccccc1)C1CCC(CCNC(=O)c2c(F)cccc2F)CC1 (stereo not drawn) [compound 461, N-{2-[4-(dimethylamino-phenyl-methyl)-cyclohexyl]-ethyl}-2,6-difluoro-benzamide] | – | 100 | 7.77
CN(C)C(c1cccc(F)c1)C1CCC(CCNC(=O)c2c(F)cccc2F)CC1 (stereo not drawn) [compound 462, N-(2-{4-[dimethylamino-(3-fluoro-phenyl)-methyl]-cyclohexyl}-ethyl)-2,6-difluoro-benzamide] | – | 91 | 7.26
CN(C)C(c1ccccc1)C1CCC(CCNC(=O)c2csc(-c3ccccc3)n2)CC1 (stereo not drawn) [compound 463, 2-phenyl-thiazole-4-carboxylic acid {2-[4-(dimethylamino-phenyl-methyl)-cyclohexyl]-ethyl}-amide] | – | 104 | 8.07
CN(C)C(c1ccc(F)cc1)C1CCC(CCNC(=O)c2csc(-c3ccccc3)n2)CC1 (stereo not drawn) [compound 464, 2-phenyl-thiazole-4-carboxylic acid (2-{4-[dimethylamino-(4-fluoro-phenyl)-methyl]-cyclohexyl}-ethyl)-amide] | – | 92 | 7.12
CN(C)C(c1cccs1)C1CCC(CCNC(=O)c2csc3ccccc23)CC1 (stereo not drawn) [compound 465, benzo[b]thiophene-3-carboxylic acid {2-[4-(dimethylamino-thiophen-2-yl-methyl)-cyclohexyl]-ethyl}-amide] | – | 99 | 8.51

Compound | inhibition at 10 µM [1] [%] | inhibition at 1 µM (human μ-opiate receptor) [%] | pKi (human μ-opiate receptor)
CSc1ncccc1C(=O)NCCC1CCC(C(c2ccccc2)N(C)C)CC1 (stereo not drawn) [compound 466, N-{2-[4-(dimethylamino-phenyl-methyl)-cyclohexyl]-ethyl}-2-methylsulfanyl-nicotinamide] | – | 86 | 7.39
Cc1oc(-c2ccccc2)cc1C(=O)NCCC1CCC(C(c2ccccc2)N(C)C)CC1 (stereo not drawn) [compound 467, 2-methyl-5-phenyl-furan-3-carboxylic acid {2-[4-(dimethylamino-phenyl-methyl)-cyclohexyl]-ethyl}-amide] | – | 82 | 7.21
CN(C)C(c1ccccc1)C1CCC(CCNC(=O)c2csc(-c3ccc4c(c3)CCO4)n2)CC1 (stereo not drawn) [compound 468, 2-(2,3-dihydro-benzofuran-5-yl)-thiazole-4-carboxylic acid {2-[4-(dimethylamino-phenyl-methyl)-cyclohexyl]-ethyl}-amide] | – | 83 | 6.80
Cc1onc(-c2c(Cl)cccc2Cl)c1C(=O)NCCC1CCC(C(c2cccs2)N(C)C)CC1 (stereo not drawn) [compound 469, 3-(2,6-dichloro-phenyl)-5-methyl-isoxazole-4-carboxylic acid {2-[4-(dimethylamino-thiophen-2-yl-methyl)-cyclohexyl]-ethyl}-amide] | – | 87 | 7.24
CN(C)C(c1ccccc1)C1CCC(CCNC(=O)c2ccc3snnc3c2)CC1 (stereo not drawn) [compound 472, benzo[1,2,3]thiadiazole-5-carboxylic acid {2-[4-(dimethylamino-phenyl-methyl)-cyclohexyl]-ethyl}-amide] | – | 85 | –
CN(C)C(c1ccccc1)C1CCC(CCNC(=O)c2cncc(Br)c2)CC1 (stereo not drawn) [compound 473, 5-bromo-N-{2-[4-(dimethylamino-phenyl-methyl)-cyclohexyl]-ethyl}-nicotinamide] | – | 91 | 7.74
COc1c(C(=O)NCCC2CCC(C(c3ccccc3)N(C)C)CC2)csc1Cl (stereo not drawn) [compound 474, 5-chloro-4-methoxy-thiophene-3-carboxylic acid {2-[4-(dimethylamino-phenyl-methyl)-cyclohexyl]-ethyl}-amide] | – | 100 | 8.57
COc1c(C(=O)NCCC2CCC(C(c3ccc(F)cc3)N(C)C)CC2)csc1Cl (stereo not drawn) [compound 475, 5-chloro-4-methoxy-thiophene-3-carboxylic acid (2-{4-[dimethylamino-(4-fluoro-phenyl)-methyl]-cyclohexyl}-ethyl)-amide] | – | 97 | 8.16
COc1c(C(=O)NCCC2CCC(C(CCc3ccccc3)N(C)C)CC2)csc1Cl (stereo not drawn) [compound 476, 5-chloro-4-methoxy-thiophene-3-carboxylic acid {2-[4-(1-dimethylamino-3-phenyl-propyl)-cyclohexyl]-ethyl}-amide] | – | 87 | 7.08
CN(C)C(c1ccccc1)C1CCC(CCNC(=O)c2cccc(C#N)c2)CC1 (stereo not drawn) [compound 477, 3-cyano-N-{2-[4-(dimethylamino-phenyl-methyl)-cyclohexyl]-ethyl}-benzamide] | – | 96 | 7.89
COc1ccc(C(=O)NCCC2CCC(C(c3ccccc3)N(C)C)CC2)c(OC)c1 (stereo not drawn) [compound 478, N-{2-[4-(dimethylamino-phenyl-methyl)-cyclohexyl]-ethyl}-2,4-dimethoxy-benzamide] | – | 95 | 7.57
CN(C)C(c1ccccc1)C1CCC(NC(=O)c2nc(-c3cccs3)no2)CC1 (stereo not drawn) [compound 497, 3-thiophen-2-yl-[1,2,4]oxadiazole-5-carboxylic acid [4-(dimethylamino-phenyl-methyl)-cyclohexyl]-amide] | 101 | – | –
Cc1noc(C(=O)NCCC2CCC(C(c3ccccc3)N(C)C)CC2)n1 (stereo not drawn) [compound 498, 3-methyl-[1,2,4]oxadiazole-5-carboxylic acid {2-[4-(dimethylamino-phenyl-methyl)-cyclohexyl]-ethyl}-amide] | 99 | – | –
CN(C)C(c1cccc(F)c1)C1CCC(NC(=O)c2nc(-c3ccccc3)no2)CC1 (stereo not drawn) [compound 499, 3-phenyl-[1,2,4]oxadiazole-5-carboxylic acid {4-[dimethylamino-(3-fluoro-phenyl)-methyl]-cyclohexyl}-amide] | 103 | – | –
CN(C)C(c1cccc(F)c1)C1CCC(NC(=O)c2nc(CC3CC3)no2)CC1 (stereo not drawn) [compound 500, 3-cyclopropylmethyl-[1,2,4]oxadiazole-5-carboxylic acid {4-[dimethylamino-(3-fluoro-phenyl)-methyl]-cyclohexyl}-amide] | 101 | – | –
COCc1noc(C(=O)NCCC2CCC(C(CCc3ccccc3)N(C)C)CC2)n1 (stereo not drawn) [compound 501, 3-methoxymethyl-[1,2,4]oxadiazole-5-carboxylic acid {2-[4-(1-dimethylamino-3-phenyl-propyl)-cyclohexyl]-ethyl}-amide] | 106 | – | –
